# From US11149046B2, “Antibacterial sideromycins” (Hsiri Therapeutics, Inc., priority 2014, dated 2021)
# Where “and” joins values, the source holds several entries; their conditions need not be identical. Equal entries are not always repeated. Entries after “also recorded” stand apart in the source; their conditions may differ. Where two headings read alike, the source gives them in different places.
# What was measured:
# P. aeruginosa KW799/wt = assay: MIC determination; type: cell-based, Pseudomonas aeruginosa; conditions: for MIC: Pseudomonas aeruginosa, KW799/WT
# Excerpt: (§1) Table 3 that was included in the first Example 4 section provides antibacterial data for the first synthetic sideromycins we prepared and studied. The second Example 4 section elaborated and expanded on that data with inclusion of representative antibacterial data in the text and associated pictures of Petri dish assays. MIC (minimum inhibition concentration) is given in μM and AD (agar diffusion zones of inhibition are given in mm from Kirby-Bauer Petri dish growth inhibition studies).
# Pa4 = assay: MIC determination; type: cell-based, Pseudomonas aeruginosa; conditions: Pseudomonas aeruginosa; Table 5
# Excerpt: as §1
# [1] = test system: P. aeruginosa KW799/61 (permeability mutant); assay: microbe, parasite or virus in culture; type: cell-based, Pseudomonas aeruginosa
# Excerpt: (§2) MIC (minimum inhibition concentration) is given in μM and AD (agar diffusion zones of inhibition are given in mm from Kirby-Bauer Petri dish growth inhibition studies).
# Pa6 = assay: MIC determination; type: cell-based, Pseudomonas aeruginosa; conditions: Pseudomonas aeruginosa; Table 5; read-out: MIC
# Excerpt: as §2
# [2] = test system: Pa-Da-1304 CF patient isolate; assay: MIC determination; type: cell-based, Pseudomonas aeruginosa; conditions: Pseudomonas aeruginosa
# Excerpt: as §2
# We obtained a clinical isolate of Pseudomonas from a cystic fibrosis patient.
# A. baumannii ATCC 17961 = assay: MIC determination; type: cell-based, Acinetobacter baumannii
# Excerpt: as §1
# E. coli DC0 [3] = assay: MIC determination; type: cell-based; conditions: for MIC: Escherichia coli
# Excerpt: as §1
# [4] = test system: E. coli DC2 (permeability mutant); assay: MIC determination; type: cell-based
# Excerpt: as §1
# [5] = test system: Pseudomonas aeruginosa 01 (Pa01); assay: MIC determination; type: cell-based; conditions: Pseudomonas aeruginosa
# Excerpt: as §1
# M. vaccae IMET-10760 = assay: MIC determination; type: cell-based; conditions: iron deficient media
# M. luteus ATCC-10240 = assay: MIC determination; type: cell-based; conditions: iron deficient media
# B. subtilis ATCC-6633 = assay: MIC determination; type: cell-based; conditions: iron deficient media
# S. aureus SG511 = assay: MIC determination; type: cell-based; conditions: iron deficient media
# E. coli DC0 [6] = assay: Agar diffusion (Kirby-Bauer) assay; type: cell-based; conditions: Table 5
# Excerpt: as §1
# E. coli DC2 = assay: Agar diffusion (Kirby-Bauer) assay; type: cell-based; conditions: Table 5
# Excerpt: as §1
# [7] = test system: Pseudomonas aeruginosa KW799/wt; assay: Agar diffusion (Kirby-Bauer) assay; type: cell-based; conditions: wild type Pseudomonas; FIG. 8, 9, 12; listed as YML-1-18
# Excerpt: as §1
# [8] = test system: Acinetobacter baumannii ATCC 17961; assay: Agar diffusion (Kirby-Bauer) assay, with and without hydrogel; type: cell-based; conditions: Acinetobacter; FIG. 8, 9, 10
# Excerpt: as §1
# We investigated whether the sideromycin absorbed in the gel be able to diffuse out of the gel and into the agar to effect antibacterial growth. As a control, the sideromycin alone, without gel, was added in a separate 9 mm well, as usual.
# The second question was whether the sideromycin continue to be released and be able to effect bacterial growth inhibition over extended periods. Thus, additional identical agar plates were prepared and stored at 4° C. for 24, 48 and 72 hours to allow diffusion of the sideromycin (control and gel forms) into the agar before allowing the bacteria to grow in an incubator. Then after each time period, the Petri dishes were incubated at 37° C. for 20 hours to promote bacteria growth in the agar. […] The study has been extended to as long as 168 hours (one week) with retention of antibiotic effectiveness.
# A. baumannii ARC 3486 = assay: MIC determination; type: cell-based; conditions: Acinetobacter baumannii, ARC3486; Table 2; read-out: in vitro activity (MIC)
# A. baumannii ISR 14-0061 = assay: MIC determination; type: cell-based; conditions: Acinetobacter baumannii, ISR140061; Table 2; read-out: in vitro activity (MIC)
# [9] = test system: Burkholderia multivorans AU0100; assay: MIC determination; type: cell-based; conditions: Table 2, read-out: in vitro activity (MIC)
# S. Aureus ISR 14-001 = assay: MIC determination; type: cell-based; conditions: Staphylococcus aureus; Table 2; read-out: in vitro activity (MIC)
# S. Aureus ISR-002 = assay: MIC determination; type: cell-based; conditions: Staphylococcus aureus; Table 2; read-out: in vitro activity (MIC)
# P. aeruginosa Pa6 = assay: Agar diffusion assay; type: cell-based, Pseudomonas aeruginosa; conditions: M-HII media; 0.5 mM (ciprofloxacin 5 μg/ml), 50 uL per well, 37° C. 20 hrs; P unclear, V very unclear zone
# Method: (§3) Antibiotic activity was determined using agar diffusion assays against representative Gram-negative bacteria, including Pseudomonas aeruginosa (Pa6), and several multidrug resistant forms of Acinetobacter baumannii. Representative results are shown in Table 1 and a corresponding picture of an actual petri dish showing the agar diffusion results (FIG. 4). […]. [table]
# A. baumannii BAA 1710 = assay: Agar diffusion assay; type: cell-based, Acinetobacter baumannii; conditions: M-HII media; 0.5 mM (ciprofloxacin 5 μg/ml), 50 uL per well, 37° C. 20 hrs; P unclear zone
# Method: as §3
# A. baumannii BAA 1793 = assay: Agar diffusion assay; type: cell-based, Acinetobacter baumannii; conditions: M-HII media; 0.5 mM (ciprofloxacin 5 μg/ml), 50 uL per well, 37° C. 20 hrs; P unclear zone
# Method: as §3
# A. baumannii BAA 1797 = assay: Agar diffusion assay; type: cell-based, Acinetobacter baumannii; conditions: M-HII media; 0.5 mM (ciprofloxacin 5 μg/ml), 50 uL per well, 37° C. 20 hrs; P unclear zone
# Method: as §3
# A. baumannii BAA 1800 = assay: Agar diffusion assay; type: cell-based, Acinetobacter baumannii; conditions: M-HII media; 0.5 mM (ciprofloxacin 5 μg/ml), 50 uL per well, 37° C. 20 hrs
# Method: as §3
# [10] = test system: strains of Pseudomonas and Acinetobacter; assay: Antibacterial activity, general statements; type: cell-based; conditions: general statements of the text
# Method: Antibiotic activity was determined using agar diffusion assays against representative Gram-negative bacteria, including Pseudomonas aeruginosa (Pa6), and several multidrug resistant forms of Acinetobacter baumannii. Representative results are shown in Table 1 and a corresponding picture of an actual petri dish showing the agar diffusion results (FIG. 4). […].
# Acinetobacter = assay: Murine Survival Experiment with Acinetobacter; type: in vivo; conditions: 50 mg/kg IV at +30 min and +4 hr
# Method: In vivo data for murine survival with Acinetobacter is shown in Table 9 below and graphically in FIG. 14. In the experiments, 10^8 Acinetobacter was administered IP at time 0 on Day 1, and antibiotic was administered twice IV at +30 min and +4 hr
# [11] = Animal tolerability study (NOAEL) in healthy mice; type: in vivo; conditions: 24 hour study
# Method: With the easily formulated sideromycin in hand, we profiled sideromycin safety in healthy mice. Thus, sideromycin YML-I-115 was tested in healthy mice to determine its No-observed-adverse-effect level (NOAEL). We dosed the mice with YML-I-115 (the sodium salt) at 1 mg/kg, 20 mg/kg, 50 mg/kg, and 100 mg/kg through IV injection of the compound. […] Higher dosage animal experiments have been scheduled to determine the upper limit of the NOAEL value.
# [12] = iron deficient media, read-out: MIC in Fe(−)MHII Media
compound,measurement,setting,value
CC(=O)Oc1cccc(C(=O)NCCCCN(CC(=O)N[C@@H](C(=O)N[C@@H]2C(=O)N3C2SC(C)(C)[C@@H]3C(=O)O)c2ccccc2)C(=O)c2cccc(OC(C)=O)c2OC(C)=O)c1OC(C)=O (some centres unmarked) [YML-I-18],MIC,"P. aeruginosa KW799/wt; Table 5, read-out: MIC",0.0156 to 0.0313 µM
same,MIC,P. aeruginosa KW799/wt; [12],0.0156 µM
same,MIC in Fe(−)MHII Media,"P. aeruginosa KW799/wt; iron deficient media, listed as HKI-9924116",(0.0156 μM
same,increase in antibiotic activity over ampicillin,"P. aeruginosa KW799/wt; several strains of P. aeruginosas (entries 1 and 2, Table 3)",16000 fold
same,MIC,Pa4,0.03 µM
same,MIC,"[1]; Pseudomonas aeruginosa, read-out: MIC in Fe(−)MHII Media",0.052 µg/mL
same,MIC,Pa6,> 100 µM
same,MIC,[2]; Table 5,0.4 to 0.75 µM
same,MIC,[2]; clinical isolate from a cystic fibrosis patient,0.4 to 0.75 µM
same,MIC,"A. baumannii ATCC 17961; Acinetobacter baumannii, ATCC17961, iron deficient media, read-out: MIC in Fe(−)MHII Media",0.313 µg/mL
same,MIC,"A. baumannii ATCC 17961; Acinetobacter baumannii, ATCC17961, text, read-out: MIC",0.156 µg/mL to 0.313 µg/mL and 0.34 µM
same,MIC,"A. baumannii ATCC 17961; iron deficient media, listed as HKI-9924116, read-out: MIC in Fe(−)MHII Media",0.34 µM
same,MIC,"A. baumannii ATCC 17961; iron deficient media, listed as YML-1-18, read-out: MIC in Fe(−)MHII Media",0.156 µM
same,MIC,"E. coli DC0 [3]; DC0, iron deficient media, read-out: MIC in Fe(−)MHII Media",< 0.005 µg/mL
same,MIC,"E. coli DC0 [3]; representative strains of E. coli (entries 4-5, Table 3: DC0, DC2), read-out: MIC",< 0.005 µg/mL
same,MIC,"[4]; Escherichia coli, read-out: MIC in Fe(−)MHII Media",< 0.005 µg/mL
same,MIC,"[5]; Table 5, read-out: MIC",0.0156 µM
same,MIC,"M. vaccae IMET-10760; Mycolicibacterium vaccae, IMET10760, read-out: MIC in Fe(−)MHII Media",> 10 µg/mL
same,MIC,"M. luteus ATCC-10240; Micrococcus luteus, ATCC10240, read-out: MIC in Fe(−)MHII Media",> 10 µg/mL
same,MIC,"B. subtilis ATCC-6633; Bacillus subtilis, ATCC6633, read-out: MIC in Fe(−)MHII Media",> 10 µg/mL
same,MIC,"S. aureus SG511; Staphylococcus aureus, SG511, read-out: MIC in Fe(−)MHII Media",> 10 µg/mL
same,AD = agar diffusion inhibition zones,E. coli DC0 [6],(AD = 32) mm
same,AD = agar diffusion inhibition zones,E. coli DC2,(AD = 40) mm
same,zones of inhibition (in words),[7],impressive zones of inhibition; also recorded: potently active
same,zones of inhibition (in words),[8],impressive zones of inhibition
"O=C(O)c1cn(C2CC2)c2cc(N3CCNCC3)c(F)cc2c1=O [ciprofloxacin, reference compound]",MIC,"A. baumannii ATCC 17961; Acinetobacter baumannii, ATCC17961, Table 2, read-out: in vitro activity (MIC)",0.2 µM
same,MIC,A. baumannii ARC 3486,> 5 µM
same,MIC,A. baumannii ISR 14-0061,> 5 µM
same,MIC,[9],> 5 µM
same,MIC,S. Aureus ISR 14-001,0.2 µM
same,MIC,S. Aureus ISR-002,> 5 µM
same,MIC,"E. coli DC0 [3]; DC0, Table 2, printed E. coli DCO, read-out: in vitro activity (MIC)",0.2 µM
same,MIC,"[5]; Table 2, read-out: in vitro activity (MIC)",0.2 µM
same,Zone of Growth Inhibition,P. aeruginosa Pa6,0 mm
same,Zone of Growth Inhibition,A. baumannii BAA 1710,0 mm
same,Zone of Growth Inhibition,A. baumannii BAA 1793,0 mm
same,Zone of Growth Inhibition,A. baumannii BAA 1797,0 mm
same,Zone of Growth Inhibition,A. baumannii BAA 1800,0 mm
same,antibacterial activity (in words),[10],completely inactive
O=C(CN(CCCCNC(=O)c1cccc(O)c1O)C(=O)c1cccc(O)c1O)NC(C(=O)NC1C(=O)N2C(C(=O)[O-])=C(Cl)CCC12)c1ccccc1.[Na+] (centres unmarked) [YML-I-115],murine survival (surviving mice),"Acinetobacter; D 1, 10^8 Acinetobacter IP",6
same,murine survival (surviving mice),Acinetobacter; D 2,6
same,murine survival (surviving mice),Acinetobacter; D 3,6
same,murine survival (surviving mice),Acinetobacter; D 4,6
same,murine survival (surviving mice),Acinetobacter; D 5,6
same,murine survival (surviving mice),Acinetobacter; D 6,6
same,murine survival (surviving mice),Acinetobacter; D 7,6
same,survival and behavior (in words),"[11]; 1, 20, 50 and 100 mg/kg IV",All the mice survived and none of the mice experienced abnormal behavior
same,No-observed-adverse-effect level (NOAEL),"[11]; healthy mice, IV injection",100 mg/kg
CC(=O)Oc1cccc(C(=O)NCCCCN(CC(=O)NC(C(=O)NC2C(=O)N3C2SC(C)(C)C3C(=O)[O-])c2ccccc2)C(=O)c2cccc(OC(C)=O)c2OC(C)=O)c1OC(C)=O.[Na+] (centres unmarked) [HKI-9924154],MIC in Fe(−)MHII Media,P. aeruginosa KW799/wt; iron deficient media,0.04 to 0.052 µg/mL
same,MIC in Fe(−)MHII Media,[1]; iron deficient media,0.13 µg/mL
same,MIC in Fe(−)MHII Media,A. baumannii ATCC 17961; iron deficient media,0.313 µg/mL
same,MIC,A. baumannii ATCC 17961; [12],0.34 µM
same,MIC,A. baumannii ATCC 17961; read-out: MIC,0.34 µM
same,MIC in Fe(−)MHII Media,E. coli DC0 [3]; iron deficient media,<0.005 µg/mL
same,MIC in Fe(−)MHII Media,[4]; iron deficient media,<0.005 µg/mL
same,MIC in Fe(−)MHII Media,M. vaccae IMET-10760,>10 µg/mL
same,MIC in Fe(−)MHII Media,M. luteus ATCC-10240,>10 µg/mL
same,MIC in Fe(−)MHII Media,B. subtilis ATCC-6633,>10 µg/mL
same,MIC in Fe(−)MHII Media,S. aureus SG511,>10 µg/mL
